Results: article PMC9154758, “Alpinetin suppresses CYP3A4, 2C9, and 2E1 activity in vitro” (Pharmaceutical Biology, 2022)

Legend:
Assay type in all cases: in vitro ADME
[1] = target: T1, CYP2E1 (Homo sapiens, UniProt P05181); test: Time-dependent inhibition assay of CYP2E1 in human liver microsomes; conditions: data not shown
T1 construct: The pooled human liver microsomes (HLMs) were obtained from BD Biosciences Discovery Labware; tissue BD Biosciences Discovery Labware; host or cells: pooled human liver microsomes
Procedure: (§1) The time-dependent inhibition assay was conducted with an incubation time of 0, 5, 10, 15, and 30 min after a 30 min pre-incubation with 1 mg/mL HLMs in the presence of NADPH-generating system at 37 °C.

[2] = target: T1, CYP2E1; test: CYP2E1 inhibition in pooled human liver microsomes (chlorzoxazone 6-hydroxylation)
Procedure: (§2) The pooled human liver microsomes (HLMs) were obtained from BD Biosciences Discovery Labware. The HLMs were incubated with specific substrates of corresponding CYP450 isoenzymes under the reaction conditions in Table 1 according to previous reports (Dong et al. [2018]; Zhang et al. [2019]; Zhang, Feng, et al. [2020]). The incubation system also included alpinetin (Figure 1, 99%, Chengdu Munster Biothechnology Co, China, or specific inhibitors) and an β-NADPH generating system as previously reported in the potassium phosphate buffer with a final volume of 200 μL. The β-NADPH generating system contained NADP^+, glucose-6-phosphate, glucose-6-phosphate dehydrogenase, and MgCl2, which was used to initiate the reaction after a pre-incubation of 3 min. At the end of the reactions, the acetonitrile or trichloroacetic acid (for the evaluation of CYP2A6) was added for the termination of the reactions. All reagents were of at least analytical reagent grade obtained from Sigma Aldrich (USA). All incubations were performed in triplicate and the concentrations of metabolites were analysed with HPLC.
(§3) The effect of alpinetin on the activity of CYP1A2, 2A6, 3A4, 2C8, 2C9, 2C19, 2D6, and 2E1 was first evaluated with a concentration of 100 μM. The isoenzymes that were inhibited by alpinetin were further incubated with 0, 2.5, 5, 10, 25, 50, and 100 μM alpinetin to obtain the values of IC50.
(§4) Meanwhile, the kinetic studies were conducted in the presence of various substrate concentrations to obtain the values of Ki. The inhibition model was evaluated according to the following equations: v = (VmaxS)/[Km(1 + I/Ki) + S] for the competitive inhibition and v = (VmaxS)/[(Km + S(1 + I/KiKI)] for the non-competitive inhibition. The I is the concentration of the compound, Ki is the inhibition constant, S is the concentration of the substrate, and Km is the substrate concentration at half the maximum velocity (Vmax) of the reaction.

[3] = target: T2, CYP2C9 (Homo sapiens, UniProt P11712); test: Time-dependent inhibition assay of CYP2C9 in human liver microsomes; conditions: data not shown
T2 construct: The pooled human liver microsomes (HLMs) were obtained from BD Biosciences Discovery Labware; tissue BD Biosciences Discovery Labware; host or cells: pooled human liver microsomes
Procedure: as §1

[4] = target: T2, CYP2C9; test: CYP2C9 inhibition in pooled human liver microsomes (diclofenac 4′-hydroxylation)
Procedure: as §2, §3, §4

[5] = target: T3, CYP3A4 (Homo sapiens, UniProt P08684); test: Time-dependent inhibition assay of CYP3A4 in human liver microsomes
T3 construct: The pooled human liver microsomes (HLMs) were obtained from BD Biosciences Discovery Labware; tissue BD Biosciences Discovery Labware; host or cells: pooled human liver microsomes
Procedure: as §1

[6] = target: T3, CYP3A4; test: CYP3A4 inhibition in pooled human liver microsomes (testosterone 6β-hydroxylation)
Procedure: as §2, §3, §4

[7] = 100 μM alpinetin, relative to negative control
[8] = competitive model, various substrate concentrations

T2 sequence (P11712 whole entry): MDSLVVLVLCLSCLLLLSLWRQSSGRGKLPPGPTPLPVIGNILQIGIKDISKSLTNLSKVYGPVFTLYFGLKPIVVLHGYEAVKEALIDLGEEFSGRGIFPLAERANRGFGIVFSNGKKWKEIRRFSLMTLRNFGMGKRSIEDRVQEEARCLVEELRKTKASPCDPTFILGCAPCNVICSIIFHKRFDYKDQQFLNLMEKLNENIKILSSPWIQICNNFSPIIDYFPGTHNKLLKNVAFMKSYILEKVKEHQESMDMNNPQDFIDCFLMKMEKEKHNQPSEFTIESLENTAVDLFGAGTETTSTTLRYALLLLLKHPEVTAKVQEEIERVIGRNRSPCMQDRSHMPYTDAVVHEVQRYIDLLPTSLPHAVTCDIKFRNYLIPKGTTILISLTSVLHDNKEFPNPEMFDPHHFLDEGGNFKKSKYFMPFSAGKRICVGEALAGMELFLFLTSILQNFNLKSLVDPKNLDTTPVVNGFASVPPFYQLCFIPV
T1 sequence (P05181 whole entry): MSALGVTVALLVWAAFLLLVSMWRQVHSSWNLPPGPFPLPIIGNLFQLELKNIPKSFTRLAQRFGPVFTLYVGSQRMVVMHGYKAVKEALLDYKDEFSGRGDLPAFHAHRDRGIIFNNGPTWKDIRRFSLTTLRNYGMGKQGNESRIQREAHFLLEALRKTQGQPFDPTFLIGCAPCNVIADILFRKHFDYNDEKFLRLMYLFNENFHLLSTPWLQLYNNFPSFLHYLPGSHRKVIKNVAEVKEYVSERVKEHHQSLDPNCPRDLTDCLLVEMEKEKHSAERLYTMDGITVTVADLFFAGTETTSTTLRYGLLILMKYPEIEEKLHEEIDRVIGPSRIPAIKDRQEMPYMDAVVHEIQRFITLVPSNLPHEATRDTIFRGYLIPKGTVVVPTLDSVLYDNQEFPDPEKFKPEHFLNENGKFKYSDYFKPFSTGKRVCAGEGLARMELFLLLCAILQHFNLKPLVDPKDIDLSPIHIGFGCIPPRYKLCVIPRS
T3 sequence (P08684 whole entry): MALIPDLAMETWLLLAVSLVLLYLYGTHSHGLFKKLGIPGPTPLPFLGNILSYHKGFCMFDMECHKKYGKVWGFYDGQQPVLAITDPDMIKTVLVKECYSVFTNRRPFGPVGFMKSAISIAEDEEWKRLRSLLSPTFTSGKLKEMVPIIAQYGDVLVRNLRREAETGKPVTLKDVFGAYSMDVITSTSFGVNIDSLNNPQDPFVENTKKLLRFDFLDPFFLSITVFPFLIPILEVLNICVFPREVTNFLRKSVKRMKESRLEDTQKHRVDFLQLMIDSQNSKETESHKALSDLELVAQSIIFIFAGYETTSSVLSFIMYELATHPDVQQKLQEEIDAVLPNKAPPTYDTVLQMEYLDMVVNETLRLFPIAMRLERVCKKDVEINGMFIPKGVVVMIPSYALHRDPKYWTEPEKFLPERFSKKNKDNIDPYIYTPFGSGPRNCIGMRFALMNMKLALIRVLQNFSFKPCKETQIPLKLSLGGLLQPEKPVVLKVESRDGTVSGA

With `COc1cc(O)cc2c1C(=O)C[C@@H](c1ccccc1)O2` [alpinetin] as the molecule, how does the “Time dependence of CYP2E1 inhibition” value [1] read?
The value was “no time-dependent characteristics”.

And the “Effect on CYP2E1 activity” value [2, 7]?
The value was “dramatically inhibitory effect”.

What about the Ki [2, 8] of the same molecule?
The Ki was 5.4 µM.

And the IC50 ([2]; pooled HLMs, 0-100 μM alpinetin, chlorzoxazone 120 μM)?
The IC50 was 11 µM.

And the “Inhibition model of CYP2E1” value ([2]; stable Vmax)?
The value was “competitively”.

What about the “Time dependence of CYP2C9 inhibition” value [3] of the same molecule?
The value was “no time-dependent characteristics”.

What about the “Effect on CYP2C9 activity” value [4, 7] of the same molecule?
Its value is “dramatically inhibitory effect”.

What about the Ki [4, 8] of the same molecule?
The Ki was 6.42 µM.

And the IC50 ([4]; pooled HLMs, 0-100 μM alpinetin, diclofenac 10 μM)?
Its IC50 is 12.6 µM.

And the “Inhibition model of CYP2C9” value ([4]; stable Vmax)?
The value was “competitively”.

What about the Kinact of time-dependent CYP3A4 inhibition ([5]; 30 min pre-incubation, 1 mg/mL HLMs, substrate approx. 4-fold Km) of the same molecule?
The Kinact of time-dependent CYP3A4 inhibition was 0.041 min⁻¹.

And the “Time dependence of CYP3A4 inhibition” value ([5]; incubation 0, 5, 10, 15, and 30 min)?
The value was “time-dependent”.

What about the “Effect on CYP3A4 activity” value [6, 7] of the same molecule?
Its value is “dramatically inhibitory effect”.

And the “Inhibition model of CYP3A4” value ([6]; best-fitted model, stable Km)?
The value was “non-competitive”.

And the Ki ([6]; non-competitive model, 0, 2, 5, 10, and 20 μM alpinetin, various concentrations of testosterone)?
Its Ki is 4.09 µM.

And the IC50 ([6]; pooled HLMs, 0-100 μM alpinetin, testosterone 50 μM)?
Its IC50 is 8.23 µM.
